Measured values published in patent publication US8198285B2, “Pyrazine derivatives” (Astrazeneca AB, priority 2010, dated 2012).
Counter-ions that a name gives are not always drawn.

Key:
[1] = target: T1, CYP3A4 (Homo sapiens, UniProt P08684); assay: CYP3A4 inhibition (midazolam oxidation to 1'-hydroxymidazolam); format: in vitro ADME; conditions: E. coli expressed 3A4 membranes, midazolam 2.5 μM; read-out: IC50 CYP3A4 (estimated)
T1 construct: purchased Cypex (Dundee, UK); host or cells: E. coli (membranes)
T1 sequence (P08684 whole entry): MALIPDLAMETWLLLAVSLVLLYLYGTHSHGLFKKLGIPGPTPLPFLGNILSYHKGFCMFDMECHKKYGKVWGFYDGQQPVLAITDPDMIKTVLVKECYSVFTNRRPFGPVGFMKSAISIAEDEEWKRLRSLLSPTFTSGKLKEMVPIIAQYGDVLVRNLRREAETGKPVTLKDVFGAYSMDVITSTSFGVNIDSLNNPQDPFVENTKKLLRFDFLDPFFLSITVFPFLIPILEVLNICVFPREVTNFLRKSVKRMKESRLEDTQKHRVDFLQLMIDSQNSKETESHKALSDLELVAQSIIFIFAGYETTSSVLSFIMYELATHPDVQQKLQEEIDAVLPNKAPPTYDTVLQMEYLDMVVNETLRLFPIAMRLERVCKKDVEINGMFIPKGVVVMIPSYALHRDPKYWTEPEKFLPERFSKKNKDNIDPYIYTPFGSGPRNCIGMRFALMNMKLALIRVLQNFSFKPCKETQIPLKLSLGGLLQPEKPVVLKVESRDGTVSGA
Description: The ability of certain compounds to inhibit CYP3A4 in membranes was determined from the inhibition of midazolam oxidation to 1′-hydroxy midazolam. […] Employing an automated assay (full IC50) using the Automation Platform, up to thirteen compounds were run per plate as well as ketoconazole as a standard inhibitor of CYP3A4.
The incubations were carried out in 0.1 M phosphate buffer (pH 7.4 at 37° C.) containing DMSO (1%), midazolam (2.5 μM), phenacetin (25.7 μM), diclofenac (1.8 μM), S-mephenyloin (30.5 μM), bufuralol (8.8 μM), NADPH (1 mM), E. coli expressed 3A4 membranes (5 pmol/ml), 1A2 membranes (25 pmol/ml), 2C9 membranes (5 pmol/ml), 2C19 membranes (2.5 pmol/ml), 2D6 membranes (5 pmol/ml), and the test inhibitors ketoconazole, α-napthoflavone, sulphaphenazole, tranylcypromine and quinidine. […]
The assay was run on a robotic sample processor. […] The samples were centrifuged, transferred to a clean plate and analysed by LC MS/MS, which was conducted using an Applied Biosystems-Sciex API4000 mass spectrometer, with Agilent HP1100 binary solvent delivery pumps, and CTC HTS-PAL autosampler. […] The formation of product (1′-hydroxymidazolam) was monitored. […]
Rates of reaction were calculated for each reaction by measuring MS/MS area units. […]
The degree of inhibition of CYP3A4 was calculated and expressed as an IC50 value. […]

[2] = target: T2, cardiac Na+ channel, hNav1.5 (Homo sapiens, UniProt Q14524); assay: hNav1.5 IonWorks electrophysiology in CHO cells; format: cell-based; conditions: IonWorks Quattro, 3 Hz, room temperature
T2 construct: expressed in transfected cells; host or cells: Chinese hamster ovary K1 (CHO) cells
T2 sequence (Q14524 whole entry): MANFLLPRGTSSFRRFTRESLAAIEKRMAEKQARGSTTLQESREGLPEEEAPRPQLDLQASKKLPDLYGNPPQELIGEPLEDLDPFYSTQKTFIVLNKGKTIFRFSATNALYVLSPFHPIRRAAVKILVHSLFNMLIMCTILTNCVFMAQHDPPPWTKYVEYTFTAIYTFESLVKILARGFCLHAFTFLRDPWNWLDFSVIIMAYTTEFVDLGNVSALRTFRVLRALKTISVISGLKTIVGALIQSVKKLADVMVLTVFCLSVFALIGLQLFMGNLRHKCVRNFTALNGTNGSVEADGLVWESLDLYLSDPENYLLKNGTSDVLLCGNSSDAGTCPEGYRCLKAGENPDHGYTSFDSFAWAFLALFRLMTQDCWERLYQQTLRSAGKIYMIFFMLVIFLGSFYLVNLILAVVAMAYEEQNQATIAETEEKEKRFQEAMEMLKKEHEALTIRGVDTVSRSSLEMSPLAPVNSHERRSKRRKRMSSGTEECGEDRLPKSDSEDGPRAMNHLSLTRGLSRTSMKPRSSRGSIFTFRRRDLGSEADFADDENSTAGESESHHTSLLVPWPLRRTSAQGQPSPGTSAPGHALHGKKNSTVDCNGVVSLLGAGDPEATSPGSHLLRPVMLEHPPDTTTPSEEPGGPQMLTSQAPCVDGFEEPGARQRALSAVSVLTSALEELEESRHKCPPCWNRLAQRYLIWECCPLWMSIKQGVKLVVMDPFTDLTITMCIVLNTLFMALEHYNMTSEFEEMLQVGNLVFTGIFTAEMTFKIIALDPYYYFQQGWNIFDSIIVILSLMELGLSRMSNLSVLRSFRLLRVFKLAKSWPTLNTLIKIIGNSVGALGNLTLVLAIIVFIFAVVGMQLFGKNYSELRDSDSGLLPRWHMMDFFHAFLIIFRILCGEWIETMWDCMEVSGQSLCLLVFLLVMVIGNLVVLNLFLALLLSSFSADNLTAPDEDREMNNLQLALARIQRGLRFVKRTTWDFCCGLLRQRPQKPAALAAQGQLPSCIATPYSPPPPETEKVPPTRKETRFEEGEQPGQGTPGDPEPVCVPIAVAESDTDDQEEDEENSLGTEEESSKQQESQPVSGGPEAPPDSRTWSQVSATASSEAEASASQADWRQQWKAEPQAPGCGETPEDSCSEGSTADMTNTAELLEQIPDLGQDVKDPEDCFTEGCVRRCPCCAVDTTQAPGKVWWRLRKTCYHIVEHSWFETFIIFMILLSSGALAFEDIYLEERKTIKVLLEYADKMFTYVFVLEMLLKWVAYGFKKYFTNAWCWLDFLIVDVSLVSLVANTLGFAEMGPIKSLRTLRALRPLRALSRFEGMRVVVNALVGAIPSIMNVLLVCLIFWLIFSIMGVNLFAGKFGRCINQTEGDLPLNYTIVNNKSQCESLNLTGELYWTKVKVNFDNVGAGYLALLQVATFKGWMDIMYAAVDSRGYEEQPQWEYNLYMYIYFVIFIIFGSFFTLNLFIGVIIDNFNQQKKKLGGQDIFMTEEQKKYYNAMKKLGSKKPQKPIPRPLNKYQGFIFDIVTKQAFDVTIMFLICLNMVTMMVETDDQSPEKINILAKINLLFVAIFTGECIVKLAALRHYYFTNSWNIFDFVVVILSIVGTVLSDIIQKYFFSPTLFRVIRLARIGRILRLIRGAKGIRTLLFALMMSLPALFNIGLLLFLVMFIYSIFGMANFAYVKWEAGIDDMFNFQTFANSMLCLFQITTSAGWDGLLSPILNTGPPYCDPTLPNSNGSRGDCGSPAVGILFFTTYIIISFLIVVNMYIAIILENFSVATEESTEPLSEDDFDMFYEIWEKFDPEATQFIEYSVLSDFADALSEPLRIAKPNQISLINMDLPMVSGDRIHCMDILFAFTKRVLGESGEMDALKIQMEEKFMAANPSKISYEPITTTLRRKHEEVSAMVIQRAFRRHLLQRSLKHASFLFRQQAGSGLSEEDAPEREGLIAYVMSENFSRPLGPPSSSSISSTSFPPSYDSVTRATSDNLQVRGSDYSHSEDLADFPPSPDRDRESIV
Description: The hNav1.5-expressing Chinese hamster ovary K1 (CHO) cells used has been described previously (Persson, F. et al, (2005), Journal of Cardiovascular Electrophysiology, 16, 329-341). These cells were grown to semi-confluence at 37° C. in a humidified environment (5% CO2) in F-12 Ham medium containing Glutamax™, 10% foetal calf serum and 1 mg/ml G418 (all Invitrogen). Prior to use, the monolayer was washed using a pre-warmed (37° C.) 3 ml aliquot of Versene 1:5000 (Invitrogen). After aspiration of this solution the flask was incubated at 37° C. with a further 3 ml of Versene 1:5000 for a period of 6 min. […] A 0.5 ml aliquot of cell suspension was removed and the number of viable cells (based on trypan blue exclusion) was determined in an automated cell counter (Cedex; Innovatis) so that the cell re-suspension volume could be adjusted with PBS to give the desired final cell concentration. […]
Pre- and post-scan hNav1.5 current amplitude was measured from the leak-subtracted traces by the IonWorks™ software by taking the average current during the end of the depolarising pulse to 0 mV (baseline current) and subtracting this from the peak inward current. […]

COCCCNCCCc1ccc(-c2cnc(N)c(C(=O)Nc3cccnc3)n2)cc1 [Example 1, 3-Amino-6-(4-{3-[(3-methoxypropyl)amino]propyl}phenyl)-N-pyridin-3-ylpyrazine-2-carboxamide tri-hydrochloride]
IC50 [1]: > 50 µM
IC50 [2]: 21.2 µM
